Reference: publication PMC11766569, “Novel Insights into the Nobilamide Family from a Deep-Sea Bacillus: Chemical Diversity, Biosynthesis and Antimicrobial Activity Towards Multidrug-Resistant Bacteria” (Marine Drugs, 2025)
In brackets after ≈: the same amount, converted by molar mass. Where two headings read alike, the source gives them in different places. Marks after values point to notes of the source that are not given here. Values belong to the compound of their own block, whether it stands above or below them. Bridge positions count the residues as written; N and C are the ends. Square brackets hold non-standard residues; d marks the D form. Peptide text beside a SMILES is read from it. d(aThr) = C[C@@H](O)[C@@H](N)C(=O)O; Dhb = C/C=C(\N)C(=O)O

What was measured:
L. monocytogenes 677 = test: microbe, parasite or virus in culture; format: cell-based, Listeria monocytogenes
Procedure: (§1) To evaluate the antimicrobial potential of all samples, the MICs for E. coli ATCC® 10536™, S. aureus ATCC® 6538™, S. aureus ATCC® 6538p™, methicillin-resistant S. aureus (MRSA), macrolide-resistant S. aureus ([…]), quinolone-resistant S. aureus (QRSA), vancomycin-resistant S. aureus (VRSA), S. epidermidis RP206 [7], S. xylosus MB 5209 [77] were determined by the liquid inhibition assay. Briefly, the bacterial strains were inoculated in 3 mL of liquid Mueller–Hinton broth (MHB) (HiMedia, Einhausen, Germany) in sterile bacteriological tubes and incubated in agitation at 37 °C until they reached the turbidity of 0.5 McFarland. Different from the remaining pathogens, L. monocytogenes MB 677 [79] was diluted in the Trypticasein soy broth (TSB) medium with an additional 0.6% yeast extract. Finally, serial dilutions of the inoculum were performed to obtain a final bacterial concentration of about 5 × 10^5 CFU/mL. Then, 4 µL of each sample was added into a 96-well microtiter plate containing 200 µL of MH medium. After being serially diluted using MH medium, 100 µL of bacterial suspension was inoculated into the broth (~5 × 10^4 CFU/well) and incubated statically for 18 h at 37 °C. DMSO was used as a control to determine the effect of solvent on cell growth. Vancomycin, erythromycin, and ampicillin were used as positive controls.

[1] = tested on: S. aureus macrolide-resistant; test: microbe, parasite or virus in culture; format: cell-based, Staphylococcus aureus
Procedure: as §1

S. aureus 6538p = test: microbe, parasite or virus in culture; format: cell-based, Staphylococcus aureus
Procedure: as §1

S. aureus 6538 = test: microbe, parasite or virus in culture; format: cell-based, Staphylococcus aureus
Procedure: as §1

[2] = tested on: S. aureus methicillin-resistant; test: microbe, parasite or virus in culture; format: cell-based, Staphylococcus aureus
Procedure: as §1

[3] = tested on: S. aureus quinolone-resistant; test: microbe, parasite or virus in culture; format: cell-based, Staphylococcus aureus
Procedure: as §1

S. xilosus MB5209 = test: microbe, parasite or virus in culture; format: cell-based, S. xylosus
Procedure: as §1

S. epidermidis RP206 = format: cell-based; conditions: RP206, 18 h
Procedure: as §1

E. coli ATCC 10536 = test: Liquid inhibition assay (MIC); format: cell-based, Escherichia coli; conditions: Gram-negative E. coli ATCC 10536
Procedure: as §1

[4] = tested on: S. aureus vancomycin-resistant; test: Liquid inhibition assay (MIC); format: cell-based, Staphylococcus aureus; conditions: vancomycin-resistant S. aureus (VRSA), 96-well, MH medium, ~5 × 10^4 CFU/well, 18 h at 37 °C, absorbance at 600 nm
Procedure: as §1

MIC (L. monocytogenes 677; L. monocytogenes 677, diluted in TSB with 0.6% yeast extract, 18 h at 37 °C, absorbance at 600 nm): 1 ^c μg/mL
MIC (L. monocytogenes 677; Listeria monocytogenes, 677, 18 h): 1 µg/mL (≈ 2.86 µM)
Structure (SMILES): CC1(C)S[C@@H]2[C@H](NC(=O)[C@H](N)c3ccccc3)C(=O)N2[C@H]1C(=O)O [ampicillin]

Structure (SMILES): CN[C@H](CC(C)C)C(=O)N[C@H]1C(=O)N[C@@H](CC(N)=O)C(=O)N[C@H]2C(=O)N[C@H]3C(=O)N[C@H](C(=O)N[C@H](C(=O)O)c4cc(O)cc(O)c4-c4cc3ccc4O)[C@H](O)c3ccc(c(Cl)c3)Oc3cc2cc(c3O[C@@H]2O[C@H](CO)[C@@H](O)[C@H](O)[C@H]2O[C@H]2C[C@](C)(N)[C@H](O)[C@H](C)O2)Oc2ccc(cc2Cl)[C@H]1O [Vancomycin]
MIC ([1]; Staphylococcus aureus, 18 h): 0.5 µg/mL (≈ 0.345 µM)
MIC ([1]; macrolide-resistant S. aureus, 96-well, MH medium, ~5 × 10^4 CFU/well, 18 h at 37 °C, absorbance at 600 nm): 0.5 ^a μg/mL
MIC (S. aureus 6538p; S. aureus 6538p, 96-well, MH medium, ~5 × 10^4 CFU/well, 18 h at 37 °C, absorbance at 600 nm, lowest concentration that completely inhibited growth): 1 ^a μg/mL
MIC (S. aureus 6538p; Staphylococcus aureus, 6538P, 18 h): 1 µg/mL (≈ 0.69 µM)
MIC (S. aureus 6538; S. aureus 6538, 96-well, MH medium, ~5 × 10^4 CFU/well, 18 h at 37 °C, absorbance at 600 nm): 0.5 ^a μg/mL
MIC (S. aureus 6538; Staphylococcus aureus, 6538, 18 h): 0.5 µg/mL (≈ 0.345 µM)
MIC ([2]; Staphylococcus aureus, 18 h): 0.5 µg/mL (≈ 0.345 µM)
MIC ([2]; methicillin-resistant S. aureus, 96-well, MH medium, ~5 × 10^4 CFU/well, 18 h at 37 °C, absorbance at 600 nm): 0.5 ^a μg/mL
MIC ([3]; Staphylococcus aureus, 18 h): 0.5 µg/mL (≈ 0.345 µM)
MIC ([3]; quinolone-resistant S. aureus, 96-well, MH medium, ~5 × 10^4 CFU/well, 18 h at 37 °C, absorbance at 600 nm): 0.5 ^a μg/mL
MIC (S. xilosus MB5209; S. xilosus MB5209, 96-well, MH medium, ~5 × 10^4 CFU/well, 18 h at 37 °C, absorbance at 600 nm): 0.5 ^a μg/mL
MIC (S. xilosus MB5209; Staphylococcus xylosus, MB5209, 18 h): 0.5 µg/mL (≈ 0.345 µM)

MIC ([1]; macrolide-resistant, 18 h): 1.9 µg/mL (≈ 2.36 µM)
MIC (S. aureus 6538p; 6538p, 18 h): 0.24 µg/mL (≈ 0.299 µM)
MIC (S. aureus 6538; 6538, 18 h): 0.24 µg/mL (≈ 0.299 µM)
MIC ([2]; methicillin-resistant, 18 h): 3.9 µg/mL (≈ 4.85 µM)
MIC ([3]; quinolone-resistant, 18 h): 0.9 µg/mL (≈ 1.12 µM)
MIC (S. xilosus MB5209; 18 h): 7.8 µg/mL (≈ 9.7 µM)
MIC (S. epidermidis RP206): 7.8 µg/mL (≈ 9.7 µM)
MIC (L. monocytogenes 677; 677, 18 h): 0.24 µg/mL (≈ 0.299 µM)
Structure (SMILES): C/C=C1\NC(=O)[C@H](C)NC(=O)[C@H](C(C)C)NC(=O)[C@H](NC(=O)[C@H](Cc2ccccc2)NC(=O)[C@@H](CC(C)C)NC(=O)[C@@H](Cc2ccccc2)NC(C)=O)[C@@H](C)OC1=O [TL-119] (Ac-[dF][dL]F[d(aThr)]VA[Dhb]; ester 4-C)
antibacterial activity (in words) (E. coli ATCC 10536): lack of antibacterial activity

MIC ([4]; Staphylococcus aureus, read-out: MIC): 1 µg/mL (≈ 1.36 µM)
MIC [4]: 1 ^b μg/mL
Structure (SMILES): CC[C@H]1OC(=O)[C@H](C)[C@@H](O[C@H]2C[C@@](C)(OC)[C@@H](O)[C@H](C)O2)[C@H](C)[C@@H](O[C@@H]2O[C@H](C)C[C@H](N(C)C)[C@H]2O)[C@](C)(O)C[C@@H](C)C(=O)[C@H](C)[C@@H](O)[C@]1(C)O [erythromycin]
